Experimental data taken from patent US9540384B2, “Pyrrolidino heterocycles” (Hoffmann-La Roche Inc., priority 2012, dated 2017).
Where a name gives a salt, the structure may show the parent alone.

These compounds were tested against human PDE10A full length (Homo sapiens (Human), UniProt Q9Y233) (assay: human PDE10A full length Scintillation Proximity Assay (SPA)). Details: PDE10A enzyme, 50 nM cGMP + 50 nM [3H]-cGMP, 20 minutes at room temperature.
Format: biochemical
Description: The following test was carried out in order to determine the activity of the compounds of the present invention. PDE10 activity of the compounds of the present invention was determined using a Scintillation Proximity Assay (SPA)-based method similar to the one previously described (Fawcett, L. et al., Proc Natl Acad Sci USA (2000) 97(7):3702-3707).
The human PDE10A full length assay was performed in 96-well micro titer plates. The reaction mixture of 50 μl contained 20 mM HEPES pH=7.5/10 mM MgCl2/0.05 mg/ml BSA (Sigma cat. #A-7906), 50 nM cGMP (Sigma, cat. #G6129) and 50 nM [3H]-cGMP (GE Healthcare, cat. #TRK392 S.A. 13.2 Ci/mmol), 3.75 ng/well PDE10A enzyme (Enzo Life Science, Lausen, Switzerland cat #SE-534) with or without a specific test compound. A range of concentrations of the potential inhibitor was used to generate data for calculating the concentration of inhibitor resulting in 50% of the effect (e.g. IC50, the concentration of the competitor inhibiting PDE10A activity by 50%). Non-specific activity was tested without the enzyme. The reaction was initiated by the addition of the substrate solution (cGMP and [3H]-cGMP) and allowed to progress for 20 minutes at room temperature. The reaction was terminated by adding 25 μl of YSi-SPA scintillation beads (GE Healthcare, cat. #RPNQ0150) in 18 mM zinc sulphate solution (stop reagent). After 1 h under shaking, the plate was centrifuged one minute at 170 g to allow beads to settle. Afterwards, radioactive counts were measured on a Perkin Elmer TopCount Scintillation plate reader.

Sequence of human PDE10A full length (Q9Y233 other isoform, or with tags, fused parts or gaps): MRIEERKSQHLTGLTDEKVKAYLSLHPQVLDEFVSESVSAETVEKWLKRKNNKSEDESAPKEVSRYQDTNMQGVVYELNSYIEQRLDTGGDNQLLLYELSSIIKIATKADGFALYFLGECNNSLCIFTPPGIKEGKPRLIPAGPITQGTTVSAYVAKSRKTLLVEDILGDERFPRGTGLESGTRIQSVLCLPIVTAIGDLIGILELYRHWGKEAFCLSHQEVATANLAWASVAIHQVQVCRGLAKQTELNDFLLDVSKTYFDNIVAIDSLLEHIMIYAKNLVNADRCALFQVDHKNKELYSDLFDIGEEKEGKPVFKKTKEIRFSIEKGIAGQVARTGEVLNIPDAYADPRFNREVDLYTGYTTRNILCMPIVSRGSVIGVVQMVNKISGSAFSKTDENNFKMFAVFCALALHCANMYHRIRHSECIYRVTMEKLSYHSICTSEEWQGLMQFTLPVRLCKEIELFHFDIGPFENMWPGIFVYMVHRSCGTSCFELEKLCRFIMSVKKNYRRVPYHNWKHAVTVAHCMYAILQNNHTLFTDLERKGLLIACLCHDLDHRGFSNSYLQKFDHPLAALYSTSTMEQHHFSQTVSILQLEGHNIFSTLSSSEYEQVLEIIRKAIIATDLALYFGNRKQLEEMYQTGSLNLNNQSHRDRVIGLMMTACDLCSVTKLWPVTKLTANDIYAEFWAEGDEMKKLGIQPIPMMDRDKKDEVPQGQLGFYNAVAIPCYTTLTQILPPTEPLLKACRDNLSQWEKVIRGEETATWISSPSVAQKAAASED

SMILES | IC50 [nM]
Cc1cc(N2CCCC2)nc(/C=C/c2ccc3ccccc3n2)n1 [Example 1, (E)-2-[2-(4-Methyl-6-pyrrolidin-1-yl-pyrimidin-2-yl)-vinyl]-quinoline] | 530
COc1c(C)cnc(/C=C/c2cccc(N3CCOCC3)n2)c1C [Example 2, (E)-4-(6-(2-(4-Methoxy-3,5-dimethylpyridin-2-yl)vinyl)pyridin-2-yl)morpholine] | 8000
COc1c(C)cnc(/C=C/c2cccc(N3CCCC3)n2)c1C [Example 3, (E)-4-methoxy-3,5-dimethyl-2-(2-(6-(pyrrolidin-1-yl)pyridin-2-yl)vinyl)pyridine] | 790
CNc1cccc(CCc2nc(-c3ccccc3)cn2C)n1 [Example 4, Methyl-{6-[2-(1-methyl-4-phenyl-1H-imidazol-2-yl)-ethyl]-pyridin-2-yl}-amine] | 4060
COc1c(C)cnc(CCc2cccc(N3CCCC3)n2)c1C [Example 5, 4-Methoxy-3,5-dimethyl-2-(2-(6-(pyrrolidin-1-yl)pyridin-2-yl)ethyl)pyridine] | 610
Cn1cc(-c2ccccc2)nc1CCc1cccc(N2CCCC2)n1 [Example 6, 2-(2-(1-Methyl-4-phenyl-1H-imidazol-2-yl)ethyl)-6-(pyrrolidin-1-yl)pyridine] | 1840
Cn1cc(-c2ccccc2)nc1CCc1cccc(N2CCOCC2)n1 [Example 7, 4-(6-(2-(1-Methyl-4-phenyl-1H-imidazol-2-yl)ethyl)pyridin-2-yl)morpholine] | 3140
Cc1nc(C)c(CCc2cccc(N3CCCC3)n2)nc1C [Example 8, 2,3,5-Trimethyl-6-(2-(6-(pyrrolidin-1-yl)pyridin-2-yl)ethyl)pyrazine] | 600
Cc1nc2ccccc2nc1OCc1cccc(N2CCCC2)n1 [Example 9, 2-Methyl-3-((6-(pyrrolidin-1-yl)pyridin-2-yl)methoxy)quinoxaline] | 30
Cc1nc2ccccc2nc1/C=C/c1cccc(N2CCCC2)n1 [Example 10, 2-Methyl-3-[(E)-2-(6-pyrrolidin-1-yl-pyridin-2-yl)-vinyl]-quinoxaline] | 90
Cc1nc2ccccc2nc1CCc1cccc(N2CCCC2)n1 [Example 11, 2-Methyl-3-[2-(6-pyrrolidin-1-yl-pyridin-2-yl)-ethyl]-quinoxaline] | 120
Cc1oc(-c2ccccc2)nc1CCc1cccc(N2CCCC2)n1 [Example 12, 2-[2-(5-Methyl-2-phenyl-oxazol-4-yl)-ethyl]-6-pyrrolidin-1-yl-pyridine] | 2000
Clc1ccc2nc(OCc3cccc(N4CCCC4)n3)nc(N3CCOCC3)c2c1 [Example 13, 4-(6-Chloro-2-((6-(pyrrolidin-1-yl)pyridin-2-yl)methoxy)quinazolin-4-yl)morpholine] | 2.5
Cn1cc(-c2ccccc2)nc1CCc1cncc(N2CCCN2)n1 [Example 14, 2-(2-(1-Methyl-4-phenyl-1H-imidazol-2-yl)ethyl)-6-(pyrazolidin-1-yl)pyrazine hydrochloride] | 120
Cc1nc2ccccc2nc1OCc1cccc(N2CCCCC2)n1 [Example 15, 2-Methyl-3-((6-(piperidin-1-yl)pyridin-2-yl)methoxy)quinoxaline] | 1680
c1cc(COc2nc(N3CCOCC3)c3ccccc3n2)nc(N2CCCC2)c1 [Example 16, 4-(2-((6-(Pyrrolidin-1-yl)pyridin-2-yl)methoxy)quinazolin-4-yl)morpholine] | 50
CN(C)c1nc(OCc2cccc(N3CCCC3)n2)nc2ccc(Cl)cc12 [Example 17, 6-Chloro-N,N-dimethyl-2-((6-(pyrrolidin-1-yl)pyridin-2-yl)methoxy)quinazolin-4-amine] | 7
Cn1ncc2c(N3CCOCC3)nc(OCc3cccc(N4CCCC4)n3)nc21 [Example 18, 4-(1-Methyl-6-((6-(pyrrolidin-1-yl)pyridin-2-yl)methoxy)-1H-pyrazolo-[3,4-d]pyrimidin-4-yl)morpholine] | 276
Clc1ccc2nc(/C=C/c3cccc(N4CCCC4)n3)nc(N3CCOCC3)c2c1 [Example 19, (E)-4-(6-Chloro-2-(2-(6-(pyrrolidin-1-yl)pyridin-2-yl)vinyl)quinazolin-4-yl)morpholine] | 6.3
Clc1ccc2nc(CCc3cccc(N4CCCC4)n3)nc(N3CCOCC3)c2c1 [Example 20, 4-(6-Chloro-2-(2-(6-(pyrrolidin-1-yl)pyridin-2-yl)ethyl)quinazolin-4-yl)morpholine] | 3.3

SMILES | IC50 [nM]
c1cc(CCc2nc(N3CCOCC3)c3ccccc3n2)nc(N2CCCC2)c1 [Example 21, 4-(2-(2-(6-(Pyrrolidin-1-yl)pyridin-2-yl)ethyl)quinazolin-4-yl)morpholine] | 46
c1cc(COc2cc(N3CCOCC3)nc(-c3ccn[nH]3)n2)nc(N2CCCC2)c1 [Example 23, 4-[2-(2H-Pyrazol-3-yl)-6-(6-pyrrolidin-1-yl-pyridin-2-ylmethoxy)-pyrimidin-4-yl]-morpholine] | 1080
c1cncc(-c2nc(OCc3cccc(N4CCCC4)n3)cc(N3CCOCC3)n2)c1 [Example 24, 4-(2-(Pyridin-3-yl)-6-((6-(pyrrolidin-1-yl)pyridin-2-yl)methoxy)-pyrimidin-4-yl)morpholine] | 1630
CN(C)c1nc(/C=C/c2cccc(N3CCC(CO)C3)n2)nc2ccc(Cl)cc12 (stereo not drawn) [Example 25, (E)-(1-(6-(2-(6-Chloro-4-(dimethylamino)quinazolin-2-yl)vinyl)pyridin-2-yl)pyrrolidin-3-yl)methanol] | 220
O=c1[nH]c(CCc2cccc(N3CCCC3)n2)nc2cccc(Cl)c12 [Example 26, 5-Chloro-2-(2-(6-(pyrrolidin-1-yl)pyridin-2-yl)ethyl)quinazolin-4(3H)-one] | 400
COc1c(Cl)ccc2nc(CCc3cccc(N4CCCC4)n3)[nH]c(=O)c12 [Example 27, 6-Chloro-5-methoxy-2-(2-(6-(pyrrolidin-1-yl)pyridin-2-yl)ethyl)-quinazolin-4(3H)-one] | 470
Cc1nc2nc(CCc3cccc(N4CCCC4)n3)[nH]c(=O)c2n1C [Example 28, 7,8-Dimethyl-2-(2-(6-(pyrrolidin-1-yl)pyridin-2-yl)ethyl)-1H-purin-6(7H)-one] | 2730
O=c1[nH]c(CCc2cccc(N3CCCC3)n2)nc2ccc(Cl)cc12 [Example 29, 6-Chloro-2-(2-(6-(pyrrolidin-1-yl)pyridin-2-yl)ethyl)quinazolin-4(3H)-one] | 100
CC1CCC(C)N1c1cccc(CCc2nc(N(C)C)c3ccccc3n2)n1 (stereo not drawn) [Example 30, 2-(2-(6-(2,5-Dimethylpyrrolidin-1-yl)pyridin-2-yl)ethyl)-N,N-dimethylquinazolin-4-amine] | 2300
CN(C)c1nc(CCc2cccc(N3CCC(O)C3)n2)nc2ccc(Cl)cc12 (stereo not drawn) [Example 31, 1-(6-(2-(6-Chloro-4-(dimethylamino)quinazolin-2-yl)ethyl)pyridin-2-yl)pyrrolidin-3-ol] | 770
CN(C)c1nc(CCc2cccc(N3CCC(O)C3)n2)nc2ccccc12 (stereo not drawn) [Example 32, 1-(6-(2-(4-(Dimethylamino)quinazolin-2-yl)ethyl)pyridin-2-yl)-pyrrolidin-3-ol] | 480
CN(C)c1nc(CCc2cccc(N3CCC(CO)C3)n2)nc2ccc(Cl)cc12 (stereo not drawn) [Example 33, (1-(6-(2-(6-Chloro-4-(dimethylamino)quinazolin-2-yl)ethyl)pyridin-2-yl)pyrrolidin-3-yl)methanol] | 150
CN(C)c1nc(CCc2cccc(N3CCC(CO)C3)n2)nc2ccccc12 (stereo not drawn) [Example 34, (1-(6-(2-(4-(Dimethylamino)quinazolin-2-yl)ethyl)pyridin-2-yl)pyrrolidin-3-yl)methanol] | 1630
CC1CCCN1c1cccc(/C=C/c2nc(N(C)C)c3cc(Cl)ccc3n2)n1 (stereo not drawn) [Example 35, (E)-6-Chloro-N,N-dimethyl-2-(2-(6-(2-methylpyrrolidin-1-yl)pyridin-2-yl)vinyl)quinazolin-4-amine] | 27
CN(C)c1nc(/C=C/c2cccc(N3CCCC3=O)n2)nc2ccc(Cl)cc12 [Example 36, (E)-1-(6-(2-(6-chloro-4-(dimethylamino)quinazolin-2-yl)vinyl)pyridin-2-yl)pyrrolidin-2-one] | 820
Cc1cccc2c(=O)[nH]c(CCc3cccc(N4CCCC4)n3)nc12 [Example 37, 8-methyl-2-(2-(6-(pyrrolidin-1-yl)pyridin-2-yl)ethyl)quinazolin-4(3H)-one] | 3270
CC1CCCN1c1cccc(CCc2nc(N(C)C)c3cc(Cl)ccc3n2)n1 (stereo not drawn) [Example 38, 6-Chloro-N,N-dimethyl-2-(2-(6-(2-methylpyrrolidin-1-yl)pyridin-2-yl)ethyl)quinazolin-4-amine] | 81
CN(C)c1nc(/C=C/c2cccc(N(C)CCO)n2)nc2ccc(Cl)cc12 [Example 39, (E)-2-((6-(2-(6-Chloro-4-(dimethylamino)quinazolin-2-yl)vinyl)pyridin-2-yl)(methyl)amino)ethanol] | 240
CN(C)c1nc(CCc2cccc(N(C)CCO)n2)nc2ccc(Cl)cc12 [Example 40, 2-((6-(2-(6-Chloro-4-(dimethylamino)quinazolin-2-yl)ethyl)pyridin-2-yl)(methyl)amino)ethanol] | 2160
